Experimental data published in PMC8428848, “Ancient role of sulfakinin/cholecystokinin-type signalling in inhibitory regulation of feeding processes revealed in an echinoderm” (eLife, 2021).
Values joined by “and” are separate entries in the source; they are usually repeats but may differ in a detail not shown here. Equal values may be shown once. Square brackets hold non-standard residues; d marks the D form. Peptide text beside a SMILES is read from it. sY = N[C@@H](Cc1ccc(OS(=O)(=O)O)cc1)C(=O)O; pGlu = O=C1CC[C@@H](C(=O)O)N1

Columns and labels:
[1] = system: apical muscle preparations; test: In vitro contraction of apical muscle preparations (organ bath); design: species or system Asterias rubens; details: for contraction of apical muscle preparations: in vitro; for contracting action on apical muscle, % of the effect of 10 µM acetylcholine: highest concentration tested (1 µM), n = 20–23
Protocol: Effects of peptides on preparations were tested and recorded using an isotonic transducer (MLT0015, ADInstruments Pty Ltd) connected to a bridge amplifier (FE221 Bridge Amp, ADInstruments Pty Ltd) linked to PowerLab data acquisition hardware (2/36, ADInstruments Pty Ltd). Data were collected and analysed using LabChart (RRID:SCR_017551; v8.0.7) software installed on a laptop computer (Lenovo E540, Windows 7 Professional). Stock solutions of synthetic peptides were prepared in distilled water and added to the organ bath to achieve final concentrations ranging from 0.1 nM to 1 μM. To assess the viability of preparations and to enable normalization of responses to ArSK/CCK1 or ArSK/CCK2, the starfish neuropeptide NGFFYamide (100 nM) was tested on cardiac stomach preparations and acetylcholine (10 µM) was tested on tube foot and apical muscle preparations. To assess the importance of tyrosine sulphation for peptide bioactivity, a non-sulphated analog of ArSK/CCK2 (ArSK/CCK2(ns)) was also tested on cardiac stomach (n = 5), tube foot, and apical muscle preparations (data not shown).

[2] = system: affinity-purified rabbit antibodies to ArSK/CCK1; test: ELISA specificity test of affinity-purified antibodies to ArSK/CCK1; type: binding; details: TEA fraction diluted 1:10; peptide 0.1 nmol (100 µl of 1 µM); mean of six replicates
Description: To generate antibodies to ArSK/CCK1, an N-terminally truncated peptide analog of ArSK/CCK1 with the addition of a reactive N-terminal lysine residue was synthesized (KY(SO3H)GHGLFW-NH2 , Peptide Protein Research Ltd, Fareham, UK). To generate antibodies to ArSK/CCKR, a peptide corresponding to the C-terminal 15 amino acids of ArSK/CCK-R with addition of an N-terminal reactive lysine residue was synthesized (KPSPTNYTNVSSDSSV, Peptide Protein Research Ltd, Fareham, UK). These peptides were conjugated to porcine thyroglobulin (Sigma-Aldrich, Gillingham, UK) as a carrier protein using 5% glutaraldehyde (Sigma-Aldrich, Gillingham, UK) in phosphate buffer (0.1 M; pH 7.2) and the conjugate was used for immunisation of a rabbit for ArSK/CCK1 (70-day protocol; Charles River Biologics, Romans, France) and a guinea pig for ArSK/CCKR (56-day protocol; Charles River Biologics, Romans, France). The antigens were emulsified in Freund’s complete adjuvant for primary immunisations (~100 nmol antigen peptide) and in Freund’s incomplete adjuvant for three booster immunisations (~50 nmol antigen peptide). The presence of antibodies to the antigen peptides in post-immunisation serum samples was assessed using an enzyme-linked immunosorbent assay (ELISA), in comparison with pre-immune serum (Figure 5—figure supplement 1a; Figure 6—figure supplement 1). Antibodies to the antigen peptides were purified from the final bleed antiserum by affinity purification using the AminoLink Plus Immobilization Kit (Thermo Fisher Scientific, Waltham, MA), with bound antibodies eluted using glycine elution buffer (6.3 ml of 100 mM glycine [VWR Chemicals, Leicestershire, UK] and 0.7 ml of Tris [1 M, pH = 7.0]) and […] (TEA) elution buffer (6.3 ml of TEA [Sigma-Aldrich, Gillingham, UK] and 0.7 ml of Tris [1 M, pH = 7.0]). Eluates were dialyzed and sodium azide (0.1%) was added for long-term storage of the affinity-purified antibodies at 4°C. The specificity of ArSK/CCK1 antibodies eluted with TEA, which were subsequently used for immunohistochemistry (see below), was assessed by ELISA by testing them at a concentration of 1:10 with the following synthetic peptides (100 µl at a concentration of 1 µM dissolved in carbonate/bicarbonate buffer [25 mM sodium carbonate, 25 mM sodium bicarbonate, pH = 9.8]): ArSK/CCK1, ArSK/CCK2, ArSK/CCK2(ns) and the A. rubens luqin-type peptide ArLQ (Figure 5—figure supplement 1b). The rabbit antiserum to ArSK/CCK1 has been assigned the RRID:AB_2877176 and the guinea pig antiserum to ArSK/CCKR has been assigned the RRID:AB_2891354.

Asterias rubens = test: In vivo feeding behaviour on mussels after injection; details: for time to touch (first contact with a mussel) / time to enclose (time to adopt a feeding posture): 10 nmol (10 µl of 1 mM) injected; for time to touch (first contact with a mussel) / time to enclose (time to adopt a feeding posture) / starfish proceeding to a feeding posture after the first touch: compared with water-injected controls; for time to enclose (time to adopt a feeding posture): p = 0.0523 ArSK/CCK1, p < 0.05 ArSK/CCK2; for starfish proceeding to a feeding posture after the first touch / number of advances to touch the mussel / number of starfish that did not initiate feeding within the 5 hr (300 min) observation period: 10 nmol injected; for starfish proceeding to a feeding posture after the first touch: Fisher's exact test; for number of advances to touch the mussel: data not shown; for number of starfish that did not initiate feeding within the 5 hr (300 min) observation period: n = 11 ArSK/CCK1, n = 19 ArSK/CCK2; for time to touch / time to enclose: individual animals
Description: Here, the same methods employed by [Tinoco et al., 2018] were used to investigate if ArSK/CCK1 and/or ArSK/CCK2 affect feeding behaviour in starfish. […] Then, starfish were fasted for 24 days and transferred to and kept individually in Plexiglas aquaria, as described previously ([Tinoco et al., 2018]). […] The time taken for starfish to make first contact with a mussel (tube feet touching the mussel or time to touch the mussel), the number of attempts to touch, as well as the time to enclose the mussel (indicated by a feeding posture) were recorded. Starfish that were feeding after 24 hr were included in data analysis and any starfish in the control or test group that had not fed on a mussel after 24 hr were discarded from data analysis.

[3] = 10 µl of 1 mM peptide injected, n = 11
[4] = feeding experiments, count of animals
[5] = feeding experiments, percentage of animals

| Structure (SMILES) | contraction of apical muscle preparations [1] | ELISA reactivity (optical density) with antibodies to ArSK/CCK1 [2] | time to touch (first contact with a mussel) (Asterias rubens) | time to enclose (time to adopt a feeding posture) (Asterias rubens) | starfish proceeding to a feeding posture after the first touch (Asterias rubens) | number of advances to touch the mussel (Asterias rubens) | number of starfish that did not initiate feeding within the 5 hr (300 min) observation period (Asterias rubens) | Number of animals, First touch success (Asterias rubens; [3]) | Number of animals, Unsuccessful first touch (Asterias rubens; [3]) | Percentage, First touch success (Asterias rubens; [3]) | Percentage, Unsuccessful first touch (Asterias rubens; [3]) | time to touch (Asterias rubens; one line each, 10 µl of 1 mM peptide injected) | time to enclose (Asterias rubens; one line each, 10 µl of 1 mM peptide injected, observation period 300 min) | contracting action on apical muscle, % of the effect of 10 µM acetylcholine [1] | Number of animals, First touch success (Asterias rubens; [4]) | Number of animals, Unsuccessful first touch (Asterias rubens; [4]) | time to enclose (Asterias rubens; feeding experiments) | time to touch (Asterias rubens; feeding experiments) | Percentage, First touch success (Asterias rubens; [5]) | Percentage, Unsuccessful first touch (Asterias rubens; [5]) |
| --- | --- | --- | --- | --- | --- | --- | --- | --- | --- | --- | --- | --- | --- | --- | --- | --- | --- | --- | --- | --- |
| CC(C)C[C@H](NC(=O)CNC(=O)[C@H](Cc1ccccc1)NC(=O)CNC(=O)[C@H](Cc1ccc(O)cc1)NC(=O)[C@H](CCC(N)=O)NC(=O)[C@H](CC(=O)O)NC(=O)[C@H](CC(=O)O)NC(=O)CNC(=O)CN)C(=O)N[C@@H](Cc1ccccc1)C(=O)N[C@@H](Cc1ccccc1)C(N)=O [ArSK/CCK2(ns)] (H-GGDDQYGFGLFF-NH2; N-terminus assumed) | no effect | do not cross-react |  |  |  |  |  |  |  |  |  |  |  |  |  |  |  |  |  |  |
| CC(C)C[C@H](NC(=O)CNC(=O)[C@H](Cc1c[nH]cn1)NC(=O)CNC(=O)[C@H](Cc1ccc(OS(=O)(=O)O)cc1)NC(=O)[C@H](CC(=O)O)NC(=O)[C@H](CC(=O)O)NC(=O)[C@@H](NC(=O)[C@H](CCCCN)NC(=O)[C@H](CO)NC(=O)[C@@H]1CCC(=O)N1)C(C)C)C(=O)N[C@@H](Cc1ccccc1)C(=O)N[C@@H](Cc1c[nH]c2ccccc12)C(N)=O [ArSK/CCK1] ([pGlu]SKVDD[sY]GHGLFW-NH2) | caused contraction | above the OD value for the negative control | did not affect | only a tendency to an increased time to enclose | fewer | increased number of advances | four | 4 | 7 | 36 Percentage | 64 Percentage | 10 min and 16 min and 8 min and 4 min and 2 min and 23 min and 19 min and 6 min and 3 min and 22 min and 48 min | 215 min and 29 min and 4 min and 24 min and 10 min and 6 min and 144 min | ~ 40% |  |  |  |  |  |  |
| CC(C)C[C@H](NC(=O)CNC(=O)[C@H](Cc1ccccc1)NC(=O)CNC(=O)[C@H](Cc1ccc(OS(=O)(=O)O)cc1)NC(=O)[C@H](CCC(N)=O)NC(=O)[C@H](CC(=O)O)NC(=O)[C@H](CC(=O)O)NC(=O)CNC(=O)CN)C(=O)N[C@@H](Cc1ccccc1)C(=O)N[C@@H](Cc1ccccc1)C(N)=O [ArSK/CCK2] (H-GGDDQ[sY]GFGLFF-NH2; N-terminus assumed) | caused contraction | do not cross-react | did not affect | higher | fewer | increased number of advances | two |  |  |  |  |  |  | ~ 40% | 12 | 6 | 11.3 min and 199.3 min and 190.75 min and 21 min and 27 min and 53 min and 49 min and 10 min and 237 min and 12 min and 17 min and 300 min and 77 min and 88 min and 22 min and 50 min and 8 min and 46 min | 9 min and 6.9 min and 13.1 min and 13 min and 24 min and 49 min and 46 min and 6 min and 11 min and 7 min and 14 min and 36 min and 3 min and 18 min and 45 min and 4 min and 40 min | 67% | 33% |
